Calls of active or inactive are those of the source. The calls are words filed in the database; no cut-off is given here.
What was measured:
[1] = test system: HepG2; test: Cytotoxicity against human HepG2 cells incubated for 72 hrs by MTT assay; assay type: functional, cell-based; settings: HepG2, 72 h
[2] = test system: HCT-116; test: Cytotoxicity against human HCT-116 cells incubated for 72 hrs by MTT assay; assay type: functional, cell-based; settings: HCT-116, 72 h
[3] = test system: A549; test: Cytotoxicity against human A549 cells incubated for 72 hrs by MTT assay; assay type: functional, cell-based; settings: A549, 72 h
[4] = test system: HeLa; test: Cytotoxicity against human HeLa cells incubated for 72 hrs by MTT assay; assay type: functional, cell-based
[5] = test system: HCT-116; test: Downregulation of DDX5 protein expression in human HCT-116 cells at 100 nM incubated upto 72 hrs by Western blotting assay; assay type: functional, cell-based
[6] = Efflux ratio of apparent permeability across basolateral to apical over apical to basolateral side in human Caco-2 cells; assay type: ADME, cell-based
[7] = Apparent permeability across apical to basolateral side in human Caco-2 cells measured upto 120 mins by LC-MS/MS method; assay type: ADME, cell-based

**Q.** Which IC50 [1] does the source give for CC[C@@]1(O)C(=O)OCc2c1cc1n(c2=O)Cc2c-1nc1cc3c(cc1c2-c1ccc(C)c(F)c1)OCO3 here?
**A.** Its IC50 is 36.9 nM.

**Q.** And the IC50 [2]?
**A.** Its IC50 is 50.3 nM.

**Q.** And the IC50 [3]?
**A.** The IC50 was 48.2 nM.

**Q.** And the IC50 [4]?
**A.** Its IC50 is 22.1 nM.

**Q.** For CC[C@@]1(O)C(=O)OCc2c1cc1n(c2=O)Cc2c-1nc1cc3c(cc1c2-c1cc(C)cc(F)c1)OCO3, which IC50 [1] is on record?
**A.** The IC50 was 56 nM.

**Q.** What about the IC50 [2] of the same compound?
**A.** The IC50 was 41.4 nM.

**Q.** And the IC50 [3]?
**A.** Its IC50 is 30.6 nM.

**Q.** What about the IC50 [4] of the same compound?
**A.** The IC50 was 56.5 nM.

**Q.** With CCc1c2c(nc3ccc(O)cc13)-c1cc3c(c(=O)n1C2)COC(=O)[C@]3(O)CC [7-ETHYL-10-HYDROXYCAMPTOTHECIN] as the compound, how does the IC50 [1] read?
**A.** Its IC50 is 268 nM.

**Q.** And the IC50 [2]?
**A.** The IC50 was 367 nM.

**Q.** And the Activity [5]?
**A.** The Activity was “inactive”.

**Q.** And the IC50 [3]?
**A.** Its IC50 is 475 nM.

**Q.** And the IC50 [4]?
**A.** The IC50 was 234 nM.

**Q.** Which IC50 [1] does the source give for CCOc1ccc(-c2c3c(nc4cc5c(cc24)OCO5)-c2cc4c(c(=O)n2C3)COC(=O)[C@]4(O)CC)cc1F here?
**A.** Its IC50 is 206 nM.

**Q.** What about the IC50 [2] of the same compound?
**A.** The IC50 was 399 nM.

**Q.** And the IC50 [3]?
**A.** Its IC50 is 352 nM.

**Q.** And the IC50 [4]?
**A.** The IC50 was 42.2 nM.

**Q.** What does the source list for CC[C@@]1(O)C(=O)OCc2c1cc1n(c2=O)Cc2cc3cc4c(cc3nc2-1)OCO4?
**A.** IC50 [1]: 68.5 nM; IC50 [2]: 66.5 nM; efflux ratio [6]: 1.2; Papp A→B at 2 h [7]: 6.97 ×10⁻⁶ cm/s; IC50 [3]: 81.8 nM; IC50 [4]: 34.7 nM

**Q.** What does the source list for CC[C@@]1(O)C(=O)OCc2c1cc1n(c2=O)Cc2c-1nc1cc3c(cc1c2-c1cccc(F)c1)OCO3?
**A.** IC50 [1]: 155 nM; IC50 [2]: 150 nM; IC50 [3]: 40 nM; IC50 [4]: 34.7 nM

**Q.** For CC[C@@]1(O)C(=O)OCc2c1cc1n(c2=O)Cc2c-1nc1cc3c(cc1c2-c1ccc(F)c(F)c1)OCO3, which IC50 [1] is on record?
**A.** The IC50 was 49.9 nM.

**Q.** What about the IC50 [2] of the same compound?
**A.** The IC50 was 48.8 nM.

**Q.** And the IC50 [3]?
**A.** Its IC50 is 9 nM.

**Q.** What about the IC50 [4] of the same compound?
**A.** Its IC50 is 39.7 nM.

**Q.** With CC[C@@]1(O)C(=O)OCc2c1cc1n(c2=O)Cc2c-1nc1cc3c(cc1c2-c1ccc(OC)c(F)c1)OCO3 as the compound, how does the IC50 [1] read?
**A.** The IC50 was 172 nM.

**Q.** What about the IC50 [2] of the same compound?
**A.** The IC50 was 43.2 nM.

**Q.** And the IC50 [3]?
**A.** Its IC50 is 70.2 nM.

**Q.** What about the IC50 [4] of the same compound?
**A.** The IC50 was 24.3 nM.
